{"source": "paper doi:10.1101/2025.06.19.660642", "about": "“Discovery of orally bioavailable Zika and West Nile Virus antiviral compounds targeting the NS2B-NS3 protease” (bioRxiv, 2025)", "key": {"Kinetic solubility": {"assay": "Kinetic solubility", "conditions": "pH 7.4"}, "[1]": {"assay": "Microsomal clearance, MLM", "conditions": "mouse, microsomes"}, "WNV": {"system": "WNV", "assay": "WNV antiviral assay in Vero cells with P-gp inhibitor", "type": "cell-based", "conditions": "West Nile virus, read-out: WNV EC50 (Vero cells + Pgpi)"}, "ZIKV NS2B-NS3 protease": {"molecular_target": "T1, ZIKV NS2B-NS3 protease (Zika virus, UniProt A0A024B7W1)", "T1 construct": "directed at the co-expressed ZIKV NS2B-NS3 protease", "T1 sequence (A0A024B7W1 1503-1680)": "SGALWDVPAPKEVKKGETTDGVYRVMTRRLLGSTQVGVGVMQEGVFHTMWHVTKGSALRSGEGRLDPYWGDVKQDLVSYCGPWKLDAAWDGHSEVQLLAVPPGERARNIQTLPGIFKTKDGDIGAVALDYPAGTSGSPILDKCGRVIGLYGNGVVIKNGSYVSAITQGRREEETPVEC", "T1 sequence (A0A024B7W1 1425-1464)": "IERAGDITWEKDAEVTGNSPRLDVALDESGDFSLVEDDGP", "assay": "ZIKV NS2B-NS3 protease biochemical FRET assay", "conditions": "ZIKV NS2B-NS3 Ki"}, "ZIKV [2]": {"system": "ZIKV", "assay": "ZIKV antiviral assay (virus-induced cytopathy) in Vero E6 cells with P-gp inhibitor", "type": "cell-based", "conditions": "Zika virus", "protocol": "(§1) Figure 5. (A) Further characterization of ASAP-0027808. Papp was determined in MDR1-MDCK cells. Antiviral assays were performed in Vero E6 cells in a 7-day infection using 0.5 uM CP100356 as a P-gp inhibitor (see Supporting Information for more details). (B) The compound was successfully crystallized with ZIKV NS2B-NS3. ASAP-0016806 and ASAP-0027808 both appear to interact with the same residues (catalytic triad His51/Asp75/Ser135 colored yellow, other key residues Tyr161, NS2B Ser81, and NS2B Asp83 colored green). (C) Dose-dependent suppression of ZIKV-induced cytopathy in VeroE6 cells (n=2); no changes to cell viability of uninfected cells treated with the inhibitor was observed. Cells were co-treated with 0.5 μM CP100356 (as P-gp inhibitor). TEXT PRINTED IN THE PICTURE: (A) ASAP-0027808: ZIKV NS2B-NS3 Ki (μM): 0.090; ZIKV EC50 / CC50 (μM): 4.6 / >50; WNV NS2B-NS3 Ki (μM): 2.9; MW (g/mol): 313; CLint,app, HLM (μL/min/mg): < 10; MDR1-MDCK Papp A→B, B→A (10^-6 cm/sec): 2.0 ,11.0; Kinetic solubility (pH 7.4, μM): 279; LogD: 0.9"}, "ZIKV [3]": {"system": "ZIKV", "assay": "ZIKV antiviral assay in SH-SY5Y cells", "type": "cell-based", "conditions": "Zika virus"}, "[4]": {"assay": "Cytotoxicity in uninfected Vero E6 cells", "type": "cell-based", "conditions": "African green monkey; Vero cells + Pgpi, printed with WNV EC50; read-out: CC50 (WNV assay, Vero cells + Pgpi)", "protocol": "as §1"}, "Vero E6 cells": {"system": "Vero E6 cells", "assay": "Cytotoxicity in uninfected Vero E6 cells", "type": "cell-based", "conditions": "Vero E6 cells, 0.5 uM CP100356 as P-gp inhibitor", "protocol": "as §1"}, "[5]": {"assay": "Microsomal clearance, HLM", "conditions": "human, microsomes"}, "[6]": {"assay": "Murine in vivo pharmacokinetics and tolerability", "parameters": "species or system mice", "conditions": "mouse", "from_the_text": "Figure 8. […] (B) ASAP-0036543 was assigned the (S) configuration by crystallography and the compound assumed a similar binding mode to that observed with ASAP-0029000. (C) Murine in vivo pharmacokinetics for ASAP-0036543. […] TEXT PRINTED IN THE PICTURE: (A) ASAP-0036543: ZIKV Ki (μM): 0.0029; ZIKV EC50 / EC90 / CC50 (μM, SH-SY5Y cells): 0.48 / 0.75 / 38; ZIKV EC50 / EC90 / CC50 (μM, Vero cells + pgpi): 0.38 / 0.98 / >50; WNV Ki (μM): 0.058; WNV EC50 / CC50 (μM, Vero cells + Pgpi): 1.0 / >50; %F (150, 300, 600 mpk): 96 / 153 / 223; Vd,ss (L/kg): 7.9; CLp (mL/min/kg): 87; CLint,app, HLM, MLM (μL/min/mg): < 10, <10; MDR1-MDCK Papp A→B, B→A (10^-6 cm/sec): 1.2, 16; KSol (pH 7.4, μM): 389; LogD: 1.0\nThe compound had high kinetic solubility, low microsomal clearance, and acceptable permeability in an MDR1-MDCK cell line. Respectable antiviral potency against WNV in Vero cells was also noted, which had been hitherto difficult to achieve with the chemotype. […] ASAP-0036543 was then advanced to murine pharmacokinetic studies to assess its potential as an in vivo tool compound.[31]"}, "[7]": {"assay": "Cytotoxicity in SH-SY5Y cells", "conditions": "human"}, "WNV NS2B-NS3 protease": {"molecular_target": "T2, WNV NS2B-NS3 protease (West Nile virus, UniProt P06935)", "T2 construct": "some activity against the WNV NS2B-NS3 protease", "T2 sequence (P06935 1424-1463)": "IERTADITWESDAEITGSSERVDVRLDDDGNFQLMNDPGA", "T2 sequence (P06935 1502-1679)": "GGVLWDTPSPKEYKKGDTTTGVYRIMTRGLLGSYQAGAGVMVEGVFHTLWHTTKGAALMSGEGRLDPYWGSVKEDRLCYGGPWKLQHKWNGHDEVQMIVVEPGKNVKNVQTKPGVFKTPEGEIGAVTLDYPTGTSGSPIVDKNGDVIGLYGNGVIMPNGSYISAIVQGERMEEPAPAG", "assay": "WNV NS2B-NS3 protease biochemical inhibition"}, "MDR1-MDCK permeability": {"assay": "MDR1-MDCK permeability", "type": "in vitro ADME", "conditions": "dog", "protocol": "as §1"}}, "note": "Where two headings read alike, the source gives them in different places.", "data": [{"compound": "Cc1cc([C@H](Nc2ccc3c(c2)CNC3)C(=O)NCC(F)F)cc(C(F)(F)F)c1", "note": "[ASAP-0036543]", "values": [{"measurement": "solubility kinetic", "setting": "Kinetic solubility", "value": 389, "unit": "µM"}, {"measurement": "microsomal CLint", "setting": "[1]", "value": "< 10", "unit": "µL/min/mg"}, {"measurement": "EC50", "setting": "WNV", "value": 1000, "unit": "nM"}, {"measurement": "Ki", "setting": "ZIKV NS2B-NS3 protease", "value": 2.9, "unit": "nM"}, {"measurement": "EC50", "setting": "ZIKV [2]; Vero C1008, 168 h, read-out: ZIKV EC50", "value": 380, "unit": "nM"}, {"measurement": "EC90", "setting": "ZIKV [2]; Vero, read-out: ZIKV EC90 (Vero cells + pgpi)", "value": 980, "unit": "nM"}, {"measurement": "EC50", "setting": "ZIKV [3]; read-out: ZIKV EC50 (SH-SY5Y cells)", "value": 480, "unit": "nM"}, {"measurement": "EC90", "setting": "ZIKV [3]; read-out: ZIKV EC90 (SH-SY5Y cells)", "value": 750, "unit": "nM"}, {"measurement": "CC50", "setting": "[4]", "value": "> 50000", "unit": "nM"}, {"measurement": "CC50", "setting": "Vero E6 cells", "value": "> 50000", "unit": "nM"}, {"measurement": "microsomal CLint", "setting": "[5]", "value": "< 10", "unit": "µL/min/mg"}, {"measurement": "bioavailability", "setting": "[6]; in vivo, 150 mg/kg, PO 150 mpk, read-out: %F", "value": 96, "unit": "%"}, {"measurement": "bioavailability", "setting": "[6]; in vivo, 300 mg/kg, PO 300 mpk, read-out: %F", "value": 153, "unit": "%"}, {"measurement": "bioavailability", "setting": "[6]; in vivo, 600 mg/kg, PO 600 mpk, read-out: %F (oral bioavailability)", "value": 223, "unit": "%"}, {"measurement": "clearance", "setting": "[6]; in vivo, read-out: CLp", "value": 87, "unit": "mL/min/kg"}, {"measurement": "Vd", "setting": "[6]; in vivo, read-out: Vd,ss", "value": 7.9, "unit": "L/kg"}, {"measurement": "tolerability", "setting": "[6]; single PO doses of 150, 300 and 600 mg/kg", "value": "well-tolerated"}, {"measurement": "CC50", "setting": "[7]", "value": 38000, "unit": "nM"}, {"measurement": "Ki", "setting": "WNV NS2B-NS3 protease", "value": 58, "unit": "nM"}, {"measurement": "Papp A→B", "setting": "MDR1-MDCK permeability; MDCK-MDR1, A→B", "value": 1.2, "unit": "×10⁻⁶ cm/s"}, {"measurement": "Papp B→A", "setting": "MDR1-MDCK permeability; MDCK-MDR1, B→A", "value": 16, "unit": "×10⁻⁶ cm/s"}, {"measurement": "logD", "setting": "LogD", "value": 1}]}]}
